In patent US4593018A, “Oligopeptide aldehydes useful as specific inhibitors of enterokinase” (National Research Development Corp., priority 1983, dated 1986):
Residues, ends and D or L forms follow the SMILES beside them. No end group written: not given here. *: point of attachment. Boc = CC(C)(C)OC(=O)*

Key:
Type in all cases: biochemical
Human Enterokinase [1] = biological target: T1, Human Enterokinase (Homo sapiens, UniProt P98073); test: Inhibition of human enterokinase, Gly-(Asp)4-Lys-2-Nap as substrate; conditions: substrate Gly-(Asp)4-Lys-2-Nap; linear regression of 1/v against [I] at three substrate concentrations
Description: (§1) Biological testing was carried out on the polyaspartyl argininal materials prepared as described above without further purification. […] Inhibition constants Ki for human and pig enterokinase were calculated using α-N-[^3 H] acetyl trypsinogen and Gly-(Asp)4 -Lys-2-Nap as substrates using linear regression analysis of l/v against [I] at three substrate concentrations. Inhibition of trypsin catalysed hydrolysis of both these substrates and Bz-Arg-OEt was expressed as the IC50, the concentration of inhibitor required to reduce trypsin activity by 50%. The results to activation peptides, four peptides of the invention, leupeptin and p-aminobenzamidine are set out in Tables 1 to 3 below.

Human Enterokinase [2] = biological target: T1, Human Enterokinase; test: Inhibition of human enterokinase, α-N-[3H]acetyl trypsinogen as substrate; conditions: substrate α-N-[3H]acetyltrypsinogen
Description: as §1

Pig Enterokinase = Pig Enterokinase (Sus scrofa, UniProt P98074); test: Inhibition of pig enterokinase, α-N-[3H]acetyl trypsinogen as substrate; conditions: substrate α-N-[3H]acetyltrypsinogen
Description: as §1

Chain of Pig Enterokinase (P98074 52-1034): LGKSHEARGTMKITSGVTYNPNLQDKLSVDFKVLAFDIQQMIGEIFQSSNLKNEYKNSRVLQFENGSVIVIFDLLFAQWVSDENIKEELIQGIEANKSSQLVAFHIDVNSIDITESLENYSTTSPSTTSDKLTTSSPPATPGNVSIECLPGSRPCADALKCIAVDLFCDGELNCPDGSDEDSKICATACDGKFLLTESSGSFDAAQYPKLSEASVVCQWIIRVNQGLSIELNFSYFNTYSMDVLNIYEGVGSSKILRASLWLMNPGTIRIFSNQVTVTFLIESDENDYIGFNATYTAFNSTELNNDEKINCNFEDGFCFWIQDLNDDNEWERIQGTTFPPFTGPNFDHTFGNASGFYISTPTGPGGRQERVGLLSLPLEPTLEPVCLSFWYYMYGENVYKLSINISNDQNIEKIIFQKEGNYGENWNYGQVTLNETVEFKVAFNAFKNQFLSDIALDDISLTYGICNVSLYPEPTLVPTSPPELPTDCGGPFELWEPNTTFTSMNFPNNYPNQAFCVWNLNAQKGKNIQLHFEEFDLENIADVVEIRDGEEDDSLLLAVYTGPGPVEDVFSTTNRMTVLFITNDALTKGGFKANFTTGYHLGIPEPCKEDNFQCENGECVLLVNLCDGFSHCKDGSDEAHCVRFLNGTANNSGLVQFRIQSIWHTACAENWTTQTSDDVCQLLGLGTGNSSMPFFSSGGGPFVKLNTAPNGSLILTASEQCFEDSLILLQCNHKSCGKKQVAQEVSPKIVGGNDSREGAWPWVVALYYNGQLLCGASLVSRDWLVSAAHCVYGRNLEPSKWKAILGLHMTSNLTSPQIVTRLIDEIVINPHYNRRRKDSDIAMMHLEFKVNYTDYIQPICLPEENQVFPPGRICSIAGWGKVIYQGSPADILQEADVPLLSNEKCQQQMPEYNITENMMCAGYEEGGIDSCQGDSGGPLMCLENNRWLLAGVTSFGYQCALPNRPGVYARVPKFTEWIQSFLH
T1 sequence (P98073 whole entry): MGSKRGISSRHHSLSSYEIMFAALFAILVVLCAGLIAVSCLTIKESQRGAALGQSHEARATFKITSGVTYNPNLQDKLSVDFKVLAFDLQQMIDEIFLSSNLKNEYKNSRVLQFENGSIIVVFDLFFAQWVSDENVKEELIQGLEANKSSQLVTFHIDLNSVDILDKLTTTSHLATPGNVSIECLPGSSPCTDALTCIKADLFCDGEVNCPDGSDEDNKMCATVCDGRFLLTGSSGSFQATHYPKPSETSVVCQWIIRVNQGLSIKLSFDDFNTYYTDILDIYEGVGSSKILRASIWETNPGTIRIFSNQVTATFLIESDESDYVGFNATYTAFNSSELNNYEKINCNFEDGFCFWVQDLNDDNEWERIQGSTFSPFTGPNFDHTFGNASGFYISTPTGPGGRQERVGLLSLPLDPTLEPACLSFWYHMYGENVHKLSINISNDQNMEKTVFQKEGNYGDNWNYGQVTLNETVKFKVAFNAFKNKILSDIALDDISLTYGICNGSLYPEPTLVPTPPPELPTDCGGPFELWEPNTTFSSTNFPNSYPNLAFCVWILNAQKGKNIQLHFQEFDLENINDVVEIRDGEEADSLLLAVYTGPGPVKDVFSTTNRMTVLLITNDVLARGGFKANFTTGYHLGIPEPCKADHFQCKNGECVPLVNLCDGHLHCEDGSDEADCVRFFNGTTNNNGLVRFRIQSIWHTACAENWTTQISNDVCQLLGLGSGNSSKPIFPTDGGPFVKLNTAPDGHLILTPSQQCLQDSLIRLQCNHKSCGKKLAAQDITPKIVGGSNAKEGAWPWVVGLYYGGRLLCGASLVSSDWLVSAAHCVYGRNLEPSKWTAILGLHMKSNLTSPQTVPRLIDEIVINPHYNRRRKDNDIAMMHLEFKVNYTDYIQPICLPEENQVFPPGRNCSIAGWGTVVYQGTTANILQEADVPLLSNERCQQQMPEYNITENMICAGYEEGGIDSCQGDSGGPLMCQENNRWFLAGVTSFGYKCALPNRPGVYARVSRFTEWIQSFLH

CC(C)(C)OC(=O)N[C@@H](CC(=O)O)C(=O)N[C@@H](CC(=O)O)C(=O)N[C@H](C=O)CCCNC(=N)N [Boc(Asp)2 Argal, Boc--(Asp)2 --Argininal] (Boc-Asp-Asp-Arg-aldehyde)
Ki (Human Enterokinase [1]): 200 ± 50 nM | Ki (Human Enterokinase [2]): 10 ± 5 nM | Ki (Pig Enterokinase): 50 ± 10 nM

CC(C)(C)OC(=O)N[C@@H](CC(=O)O)C(=O)N[C@@H](CC(=O)O)C(=O)N[C@@H](CC(=O)O)C(=O)N[C@H](C=O)CCCNC(=N)N [Boc(Asp)3 Argal, Boc--(Asp)3 --Argininal] (Boc-DDDR-aldehyde)
Ki (Human Enterokinase [1]): 100 nM | Ki (Human Enterokinase [2]): 20 ± 5 nM | Ki (Pig Enterokinase): 35 ± 5 nM

CC(C)(C)OC(=O)N[C@@H](CC(=O)O)C(=O)N[C@@H](CC(=O)O)C(=O)N[C@@H](CC(=O)O)C(=O)N[C@@H](CC(=O)O)C(=O)N[C@H](C=O)CCCNC(=N)N [Boc(Asp)4 Argal, Boc--(Asp)4 --Argininal] (Boc-DDDDR-aldehyde)
Ki (Human Enterokinase [1]): 55 ± 5 nM | Ki (Human Enterokinase [2]): 10 ± 5 nM | Ki (Pig Enterokinase): 20 ± 10 nM

CC(=O)N[C@@H](CC(C)C)C(=O)N[C@@H](CC(C)C)C(=O)N[C@H](C=O)CCCNC(=N)N [Leupeptin, reference compound]
Ki (Human Enterokinase [1]): 1000 nM | Ki (Pig Enterokinase): ≥ 1000 nM

N=C(N)c1ccc(N)cc1 [p-aminobenzamidine, reference compound]
Ki (Human Enterokinase [2]): ≥ 50000 nM | Ki (Pig Enterokinase): ≥ 50000 nM

APFDDDDK [Ala--Pro--Phe--(Asp)4 Lys, reference compound]
Ki (Human Enterokinase [1]): 750000 nM

DDDDK [(Asp)4 Lys, reference compound]
Ki (Human Enterokinase [1]): 100000 nM
